Calls of active or inactive are those of the source.
Experiments:
[1] = biological target: ADP-ribosylation factor GTPase-activating protein 1 (Rattus norvegicus, UniProt Q62848); assay: Fluorescence polarization-based biochemical high throughput dose response screening assay to identify inhibitors of ADP-ribosylation factor GTPase activating protein 1 (ARFGAP1).; assay type: functional
[2] = biological target: Arf-GAP with SH3 domain, ANK repeat and PH domain-containing protein 1 (Homo sapiens, UniProt Q9ULH1); assay type: functional;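 note: biochemical fluorescence polarization dose–response screen measuring inhibition of ASAP1; ASAP1 GAP domain stimulating GTP hydrolysis by truncated human ARF1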
Chain of Arf-GAP with SH3 domain, ANK repeat and PH domain-containing protein 1 (Q9ULH1 whole entry, the tested form may be a part): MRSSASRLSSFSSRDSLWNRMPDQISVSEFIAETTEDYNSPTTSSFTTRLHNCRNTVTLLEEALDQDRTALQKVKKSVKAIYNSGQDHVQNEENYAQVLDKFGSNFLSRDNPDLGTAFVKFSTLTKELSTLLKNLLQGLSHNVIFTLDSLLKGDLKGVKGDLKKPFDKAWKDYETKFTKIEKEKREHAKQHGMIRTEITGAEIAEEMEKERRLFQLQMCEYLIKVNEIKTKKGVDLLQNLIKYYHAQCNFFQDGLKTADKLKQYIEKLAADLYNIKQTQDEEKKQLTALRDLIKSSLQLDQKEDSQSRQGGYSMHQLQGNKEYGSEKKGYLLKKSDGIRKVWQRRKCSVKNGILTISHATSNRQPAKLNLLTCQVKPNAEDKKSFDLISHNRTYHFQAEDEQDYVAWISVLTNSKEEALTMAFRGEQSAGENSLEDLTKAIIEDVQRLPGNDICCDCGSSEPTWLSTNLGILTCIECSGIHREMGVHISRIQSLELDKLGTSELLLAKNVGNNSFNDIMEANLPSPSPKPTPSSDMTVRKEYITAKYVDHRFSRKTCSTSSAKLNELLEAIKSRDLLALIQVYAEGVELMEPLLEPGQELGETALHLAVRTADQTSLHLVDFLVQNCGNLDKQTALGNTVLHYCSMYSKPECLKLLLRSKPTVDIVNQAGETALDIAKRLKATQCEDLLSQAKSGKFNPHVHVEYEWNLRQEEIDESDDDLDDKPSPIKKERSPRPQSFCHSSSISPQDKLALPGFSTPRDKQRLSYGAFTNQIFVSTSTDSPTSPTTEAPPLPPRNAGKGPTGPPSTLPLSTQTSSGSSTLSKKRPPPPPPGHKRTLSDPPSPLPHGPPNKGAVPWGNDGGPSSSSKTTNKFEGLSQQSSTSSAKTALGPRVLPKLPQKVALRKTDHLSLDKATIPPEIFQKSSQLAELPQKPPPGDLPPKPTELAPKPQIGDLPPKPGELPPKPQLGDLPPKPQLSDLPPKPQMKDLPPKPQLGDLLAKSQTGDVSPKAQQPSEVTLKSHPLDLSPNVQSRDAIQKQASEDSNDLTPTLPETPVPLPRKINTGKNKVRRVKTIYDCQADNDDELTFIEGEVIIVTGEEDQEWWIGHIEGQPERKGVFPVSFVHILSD

[3] = biological target: T1, Heat shock factor protein 1 (Mus musculus, UniProt P38532); assay: decrease of HSF1-responsive luciferase luminescence – cell-based, NIH3T3, dose retest, confirmation (AID 2382); assay type: functional;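 note: NIH3T3 fibroblasts with HSF1-driven luciferase reporter stressed by proteasome inhibitor MG132; luminescence from HSF1-driven luciferase expression after 8 hours of MG132 stress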
T1 sequence (P38532 whole entry): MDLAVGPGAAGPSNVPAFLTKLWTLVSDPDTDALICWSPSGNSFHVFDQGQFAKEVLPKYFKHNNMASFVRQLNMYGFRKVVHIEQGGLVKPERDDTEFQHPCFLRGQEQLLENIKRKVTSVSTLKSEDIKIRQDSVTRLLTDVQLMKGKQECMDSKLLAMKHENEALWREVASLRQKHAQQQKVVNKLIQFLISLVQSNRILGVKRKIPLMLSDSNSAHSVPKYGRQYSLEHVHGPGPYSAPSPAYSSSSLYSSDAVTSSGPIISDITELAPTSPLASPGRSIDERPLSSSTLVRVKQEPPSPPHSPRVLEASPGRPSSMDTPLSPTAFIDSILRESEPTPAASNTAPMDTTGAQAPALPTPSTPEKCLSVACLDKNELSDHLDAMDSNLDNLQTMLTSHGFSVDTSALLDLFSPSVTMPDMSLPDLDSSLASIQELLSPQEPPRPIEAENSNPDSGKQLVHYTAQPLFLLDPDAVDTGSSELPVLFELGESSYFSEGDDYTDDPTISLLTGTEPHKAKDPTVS

Lethal factor = Lethal factor (Bacillus anthracis, UniProt P15917); assay: High-throughput multiplex microsphere dose response for inhibitors of toxin protease, specifically Lethal Factor protease, compounds from Cherry Pick 02.; assay type: functional; conditions: read-out: EC50_MICROM
Chain of Lethal factor (P15917 whole entry): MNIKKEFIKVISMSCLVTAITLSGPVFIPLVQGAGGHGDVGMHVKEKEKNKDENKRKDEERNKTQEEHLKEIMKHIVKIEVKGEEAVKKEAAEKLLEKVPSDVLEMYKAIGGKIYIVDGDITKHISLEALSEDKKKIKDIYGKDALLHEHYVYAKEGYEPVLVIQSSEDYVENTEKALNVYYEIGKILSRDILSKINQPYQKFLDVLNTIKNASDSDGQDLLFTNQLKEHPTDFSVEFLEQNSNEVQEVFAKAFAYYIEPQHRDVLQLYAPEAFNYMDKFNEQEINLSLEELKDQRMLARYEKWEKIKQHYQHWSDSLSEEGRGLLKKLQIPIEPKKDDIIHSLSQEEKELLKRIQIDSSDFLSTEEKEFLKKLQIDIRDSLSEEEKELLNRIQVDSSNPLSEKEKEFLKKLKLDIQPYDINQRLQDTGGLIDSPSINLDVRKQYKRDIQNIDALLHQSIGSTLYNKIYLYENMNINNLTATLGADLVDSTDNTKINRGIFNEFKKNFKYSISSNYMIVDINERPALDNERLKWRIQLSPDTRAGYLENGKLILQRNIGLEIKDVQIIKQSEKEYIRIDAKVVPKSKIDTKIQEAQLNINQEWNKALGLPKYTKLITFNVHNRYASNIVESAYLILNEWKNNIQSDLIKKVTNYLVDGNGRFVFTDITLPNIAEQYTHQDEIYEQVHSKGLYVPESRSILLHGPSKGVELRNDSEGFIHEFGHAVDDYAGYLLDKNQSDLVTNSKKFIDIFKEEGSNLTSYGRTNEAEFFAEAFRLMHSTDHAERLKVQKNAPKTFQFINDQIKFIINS

[4] = biological target: Botulinum neurotoxin type F (Clostridium botulinum, UniProt P30996); assay: High-throughput multiplex microsphere dose response for inhibitors of toxin protease, specifically Botulinum neurotoxin light chain F protease, compounds from Cherry Pick 02.; assay type: functional; conditions: read-out: EC50_MICROM
Chain of Botulinum neurotoxin type F (P30996 1-436 limits assumed): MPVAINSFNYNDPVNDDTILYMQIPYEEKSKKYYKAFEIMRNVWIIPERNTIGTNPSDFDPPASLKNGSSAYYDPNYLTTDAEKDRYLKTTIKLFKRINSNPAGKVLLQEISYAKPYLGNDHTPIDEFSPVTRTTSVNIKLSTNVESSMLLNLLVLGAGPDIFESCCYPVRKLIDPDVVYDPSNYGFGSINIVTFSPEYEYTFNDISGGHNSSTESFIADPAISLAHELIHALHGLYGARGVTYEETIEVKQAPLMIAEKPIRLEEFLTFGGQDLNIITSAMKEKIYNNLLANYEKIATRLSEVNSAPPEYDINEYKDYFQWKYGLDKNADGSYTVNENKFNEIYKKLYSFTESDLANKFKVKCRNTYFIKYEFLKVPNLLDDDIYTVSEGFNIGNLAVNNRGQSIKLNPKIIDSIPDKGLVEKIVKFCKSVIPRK

Protein skinhead-1 = biological target: T2, Protein skinhead-1 (Caenorhabditis elegans, UniProt P34707); assay type: functional
T2 sequence (P34707 whole entry): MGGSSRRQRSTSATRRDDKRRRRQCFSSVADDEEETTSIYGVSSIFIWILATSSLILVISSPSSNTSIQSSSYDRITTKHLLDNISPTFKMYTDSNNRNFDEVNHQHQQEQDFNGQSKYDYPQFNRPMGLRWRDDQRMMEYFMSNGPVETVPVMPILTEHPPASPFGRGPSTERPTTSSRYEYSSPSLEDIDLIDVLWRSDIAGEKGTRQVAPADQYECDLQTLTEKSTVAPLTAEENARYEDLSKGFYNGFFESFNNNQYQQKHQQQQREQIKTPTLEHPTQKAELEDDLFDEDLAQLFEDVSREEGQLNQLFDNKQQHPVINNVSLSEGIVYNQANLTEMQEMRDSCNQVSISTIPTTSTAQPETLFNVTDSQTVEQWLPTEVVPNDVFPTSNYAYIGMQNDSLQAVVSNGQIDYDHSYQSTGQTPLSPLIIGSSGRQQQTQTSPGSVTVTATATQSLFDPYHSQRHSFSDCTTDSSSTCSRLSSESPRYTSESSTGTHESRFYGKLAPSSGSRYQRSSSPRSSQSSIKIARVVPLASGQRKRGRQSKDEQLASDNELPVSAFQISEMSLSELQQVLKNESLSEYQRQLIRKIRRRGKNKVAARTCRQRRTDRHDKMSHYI

[5] = viability of PTEN-deleted HCT116 cells – cell-based, HCT116 PTEN knockout, dose response (AID 1047); assay type: functional;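 note: HCT116 colon tumor cells with PTEN knocked out; cells exposed to compound for 60 hours before readout; potency for loss of cell viability measured by luminescence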
[6] = viability of HCT116 lacking mutant beta-catenin – cell-based, human colon tumor, dose response (AID 1045); assay type: functional;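 note: HCT116 colon tumor cells with beta catenin knocked out; cells exposed to compound for 60 hours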
[7] = biological target: T3, Ubiquitin-conjugating enzyme E2 N (Homo sapiens, UniProt P61088); assay type: functional;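 note: Dose-response confirmation in a TR-FRET assay detecting UBC13-driven polyubiquitin chain formation, inhibition measured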
T3 sequence (P61088 whole entry): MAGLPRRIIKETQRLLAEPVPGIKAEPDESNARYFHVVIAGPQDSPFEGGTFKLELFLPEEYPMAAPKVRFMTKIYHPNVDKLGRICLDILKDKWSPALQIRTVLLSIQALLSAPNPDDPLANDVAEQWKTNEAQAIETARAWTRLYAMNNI

[8] = viability loss in HEK293T cells – cell-based, cherry-picks, cytotoxicity control for HIV Vif inhibitor project, dose response (AID 652208); assay type: functional
[9] = Counterscreen for […] of the human trace amine associated receptor 1 (TAAR1): Fluorescence-based cell-based high throughput dose response assay to identify nonselective Ga16 agonists.; assay type: functional
[10] = Counterscreen for antagonists of the human trace amine associated receptor 1 (hTAAR1): Fluorescence-based cell-based high throughput dose response assay to identify nonselective Ga16 antagonists.; assay type: functional
Beta-lactamase [11] = biological target: Beta-lactamase (Pseudomonas aeruginosa, UniProt Q79MP6);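 note: biochemical dose-response test of metallo-beta-lactamase enzyme inhibition, read out by epi-absorbance; purified recombinant IMP-1 metallo-beta-lactamase with nitrocefin as substrate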
Chain of Beta-lactamase (Pseudomonas aeruginosa, UniProt Q79MP6) (Q79MP6 whole entry): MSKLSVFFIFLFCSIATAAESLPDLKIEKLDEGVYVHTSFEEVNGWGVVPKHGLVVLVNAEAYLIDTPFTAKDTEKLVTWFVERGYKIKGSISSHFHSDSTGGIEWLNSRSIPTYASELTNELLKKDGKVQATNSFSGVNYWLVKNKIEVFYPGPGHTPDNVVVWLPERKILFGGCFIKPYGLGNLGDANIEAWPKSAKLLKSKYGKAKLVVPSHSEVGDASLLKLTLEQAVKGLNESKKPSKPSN

Beta-lactamase [12] = biological target: Beta-lactamase (Salmonella choleraesuis (strain SC-B67), UniProt Q5J463)
Chain of Beta-lactamase (Salmonella choleraesuis (strain SC-B67), UniProt Q5J463) (Q5J463 whole entry): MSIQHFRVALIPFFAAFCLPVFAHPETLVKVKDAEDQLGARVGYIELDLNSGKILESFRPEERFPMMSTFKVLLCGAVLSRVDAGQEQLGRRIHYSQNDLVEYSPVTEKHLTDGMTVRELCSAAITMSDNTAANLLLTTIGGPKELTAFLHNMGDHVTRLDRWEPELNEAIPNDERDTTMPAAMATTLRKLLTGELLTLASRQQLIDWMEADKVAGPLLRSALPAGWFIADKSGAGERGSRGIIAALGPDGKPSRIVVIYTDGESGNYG

cells = assay type: functional
Vero = assay: viability loss in Vero cells – cell-based, plate reader, cherry-pick samples, cytotoxicity control, dose response (AID 687020); assay type: functional; conditions: Chlorocebus sabaeus
[13] = Luminescence Cell-Based Dose Confirmation HTS to Identify Activators of 5'UTR Stem-Loop Driven Alpha-Synuclein mRNA Translation in H4 Neuroglioblastoma Cells. [Related pubchem assays: 1829 (Project Summary), 1814 (Primary HTS)]; assay type: functional
[14] = Luminescence Cell-Based Dose Response HTS to Identify Activators of Luciferase Translation or Activity in H4 […] Cells. [Related pubchem assays: 1829 (Project Summary), 1814 (Primary HTS)]; assay type: functional
H4 = assay: Luminescence Cell-Based Dose Response HTS to Identify Activators of 5'UTR Stem-Loop Driven Prion Protein mRNA Translation in H4 Neuroglioblastoma Cells. [Related pubchem assays: 1829 (Project Summary), 1814 (Primary HTS)]; assay type: functional; conditions: Homo sapiens
[15] = biological target: T4, Carboxy-terminal domain RNA polymerase II polypeptide A small phosphatase 1 (Homo sapiens, UniProt Q9GZU7); assay: CTDSP1 inhibitors, concentration-response, biochemical, absorbance readout, ultra-high-throughput screen actives (AID 540297); assay type: functional
T4 sequence (Q9GZU7 whole entry): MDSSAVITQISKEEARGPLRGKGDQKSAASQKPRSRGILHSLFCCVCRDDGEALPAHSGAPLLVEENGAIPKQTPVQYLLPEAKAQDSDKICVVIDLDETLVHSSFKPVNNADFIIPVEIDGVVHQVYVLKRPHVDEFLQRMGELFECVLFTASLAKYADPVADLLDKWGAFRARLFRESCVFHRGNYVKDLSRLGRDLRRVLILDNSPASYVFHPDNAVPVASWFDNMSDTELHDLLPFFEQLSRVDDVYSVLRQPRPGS

[16] = biological target: T5, Tyrosine-protein phosphatase non-receptor type 11 (Homo sapiens, UniProt Q06124); assay: PTPN11 enzyme inhibitors – biochemical, selectivity assay for STEP inhibitor project, dose response (AID 602367); assay type: functional; conditions: read-out: IC50_Mean
T5 sequence (Q06124 whole entry): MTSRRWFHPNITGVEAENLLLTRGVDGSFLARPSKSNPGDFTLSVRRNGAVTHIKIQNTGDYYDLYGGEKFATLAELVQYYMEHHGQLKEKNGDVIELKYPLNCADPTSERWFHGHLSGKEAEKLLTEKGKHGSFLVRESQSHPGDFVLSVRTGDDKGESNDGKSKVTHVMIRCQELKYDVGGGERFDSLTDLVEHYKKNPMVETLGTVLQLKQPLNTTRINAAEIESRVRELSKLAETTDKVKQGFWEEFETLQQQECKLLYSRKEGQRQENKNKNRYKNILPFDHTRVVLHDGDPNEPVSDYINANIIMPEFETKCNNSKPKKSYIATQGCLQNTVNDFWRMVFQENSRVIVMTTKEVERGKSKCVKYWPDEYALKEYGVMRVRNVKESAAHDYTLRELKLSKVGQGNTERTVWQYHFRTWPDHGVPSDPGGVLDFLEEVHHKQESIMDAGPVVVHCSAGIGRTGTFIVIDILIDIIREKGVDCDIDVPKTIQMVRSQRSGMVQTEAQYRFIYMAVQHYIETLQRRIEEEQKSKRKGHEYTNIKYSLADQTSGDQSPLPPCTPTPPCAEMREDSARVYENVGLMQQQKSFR

[17] = biological target: T6, Tyrosine-protein phosphatase non-receptor type 5 (Homo sapiens, UniProt P54829); assay: PTPN5 enzyme inhibition – biochemical, fluorescence intensity, uHTS hits, confirmation (AID 602372); assay type: functional; conditions: read-out: IC50_Mean
T6 sequence (P54829 whole entry): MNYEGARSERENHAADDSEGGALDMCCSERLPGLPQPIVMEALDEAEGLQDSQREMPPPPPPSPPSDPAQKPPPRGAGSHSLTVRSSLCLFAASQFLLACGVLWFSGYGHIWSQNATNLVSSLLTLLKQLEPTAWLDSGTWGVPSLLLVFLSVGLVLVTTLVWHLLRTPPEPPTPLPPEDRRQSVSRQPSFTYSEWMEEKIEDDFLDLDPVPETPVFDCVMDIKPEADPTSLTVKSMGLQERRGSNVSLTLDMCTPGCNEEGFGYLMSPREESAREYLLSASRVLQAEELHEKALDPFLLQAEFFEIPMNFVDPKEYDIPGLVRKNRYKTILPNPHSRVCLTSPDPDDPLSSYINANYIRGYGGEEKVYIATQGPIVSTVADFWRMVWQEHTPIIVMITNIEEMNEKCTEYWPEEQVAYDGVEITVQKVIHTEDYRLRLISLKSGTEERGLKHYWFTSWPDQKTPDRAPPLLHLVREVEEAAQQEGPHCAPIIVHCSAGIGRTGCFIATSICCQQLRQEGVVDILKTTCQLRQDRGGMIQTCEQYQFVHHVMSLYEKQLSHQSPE

[18] = biological target: Dual specificity protein phosphatase 3 (Homo sapiens, UniProt P51452); assay: VHR phosphatase inhibition, dose response, selectivity assay for STEP inhibitor project, biochemical (AID 602374); assay type: functional; conditions: read-out: IC50_Mean
Chain of Dual specificity protein phosphatase 3 (P51452 whole entry): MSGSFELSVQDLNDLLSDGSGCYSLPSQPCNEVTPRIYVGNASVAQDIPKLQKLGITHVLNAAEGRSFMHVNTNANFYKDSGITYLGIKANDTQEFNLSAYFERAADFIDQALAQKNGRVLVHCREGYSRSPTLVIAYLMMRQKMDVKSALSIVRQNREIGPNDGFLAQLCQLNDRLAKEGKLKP

[19] = biological target: T7, Tyrosine-protein phosphatase non-receptor type 22 (Homo sapiens, UniProt Q9Y2R2); assay: lymphoid phosphatase LYP inhibitors – biochemical, selectivity assay for STEP inhibitor project, dose response (AID 624241); assay type: functional
T7 sequence (Q9Y2R2 whole entry): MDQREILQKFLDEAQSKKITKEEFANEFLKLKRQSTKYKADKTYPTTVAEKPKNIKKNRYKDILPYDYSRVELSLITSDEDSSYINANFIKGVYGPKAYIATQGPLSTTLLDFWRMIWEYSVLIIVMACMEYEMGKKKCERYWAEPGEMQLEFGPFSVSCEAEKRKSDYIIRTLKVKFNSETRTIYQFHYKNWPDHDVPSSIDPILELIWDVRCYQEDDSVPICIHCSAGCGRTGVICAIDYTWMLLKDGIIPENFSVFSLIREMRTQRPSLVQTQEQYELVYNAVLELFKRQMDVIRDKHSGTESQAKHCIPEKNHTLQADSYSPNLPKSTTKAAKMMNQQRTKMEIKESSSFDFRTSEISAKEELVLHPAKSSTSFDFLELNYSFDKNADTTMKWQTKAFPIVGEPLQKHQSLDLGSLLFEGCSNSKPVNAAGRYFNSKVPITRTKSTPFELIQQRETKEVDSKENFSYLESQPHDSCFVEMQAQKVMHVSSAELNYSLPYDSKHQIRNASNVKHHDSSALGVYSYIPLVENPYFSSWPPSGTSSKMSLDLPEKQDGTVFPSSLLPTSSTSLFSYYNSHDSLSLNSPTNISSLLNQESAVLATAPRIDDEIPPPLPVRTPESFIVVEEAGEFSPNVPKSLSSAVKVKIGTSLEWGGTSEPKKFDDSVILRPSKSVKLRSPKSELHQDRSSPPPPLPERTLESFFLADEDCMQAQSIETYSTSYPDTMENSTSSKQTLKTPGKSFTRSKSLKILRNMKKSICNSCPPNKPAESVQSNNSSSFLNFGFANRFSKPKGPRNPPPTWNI

[20] = biological target: T8, Palmitoyl-protein thioesterase ABHD10, mitochondrial (Mus musculus, UniProt Q6PE15); assay: Late stage assay provider results from the probe development effort to identify inhibitors of PME-1: fluorescence-based dose response cell-based gel-based competitive Activity-Based Protein Profiling (ABPP) inhibition of ABHD10.; assay type: functional
T8 sequence (Q6PE15 whole entry): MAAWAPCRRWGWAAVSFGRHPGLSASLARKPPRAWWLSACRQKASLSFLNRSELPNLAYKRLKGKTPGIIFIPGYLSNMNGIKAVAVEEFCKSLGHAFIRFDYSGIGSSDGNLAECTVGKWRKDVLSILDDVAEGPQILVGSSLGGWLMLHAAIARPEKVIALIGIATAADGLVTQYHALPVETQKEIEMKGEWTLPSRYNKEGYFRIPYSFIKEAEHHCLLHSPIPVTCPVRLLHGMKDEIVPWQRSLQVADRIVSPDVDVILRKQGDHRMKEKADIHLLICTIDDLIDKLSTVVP

[21] = biological target: T8, Palmitoyl-protein thioesterase ABHD10, mitochondrial; assay: Late stage assay provider results from the probe development effort to identify inhibitors of PME-1: fluorescence-based dose response biochemical gel-based competitive Activity-Based Protein Profiling (ABPP) inhibition of ABHD10 Set 1.; assay type: functional

Chain of ADP-ribosylation factor GTPase-activating protein 1 (Q62848 whole entry, the tested form may be a part): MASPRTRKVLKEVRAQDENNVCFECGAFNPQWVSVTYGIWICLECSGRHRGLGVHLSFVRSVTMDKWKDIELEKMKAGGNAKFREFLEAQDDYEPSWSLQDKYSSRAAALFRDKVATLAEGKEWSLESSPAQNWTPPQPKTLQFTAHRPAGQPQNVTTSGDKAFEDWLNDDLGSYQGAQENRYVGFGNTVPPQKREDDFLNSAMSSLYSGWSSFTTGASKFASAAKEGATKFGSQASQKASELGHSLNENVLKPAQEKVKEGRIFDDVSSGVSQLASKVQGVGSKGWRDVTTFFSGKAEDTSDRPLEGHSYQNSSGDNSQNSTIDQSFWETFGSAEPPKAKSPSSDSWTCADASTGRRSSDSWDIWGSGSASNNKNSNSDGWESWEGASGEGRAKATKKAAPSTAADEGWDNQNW

## Cc1ccc(OCc2ccc(C(=O)Nc3ccc(C(N)=O)cc3)o2)c([N+](=O)[O-])c1
[1]
  IC50: 16.7 µM (inactive)
[2]
  IC50: 14 µM (inactive)

## Cc1cc2ccccc2n1CCNC(=O)C(C)C
[3]
  EC50: > 195 µM (not active)
Lethal factor
  EC50: 19.5 µM (active)
[4]
  EC50: > 20 µM (inactive)
Protein skinhead-1
  IC50: 94.3 µM (inactive)

## COc1cc2c3nnc(-c4ccc(F)cc4)c-3cn(Cc3ccc(F)cc3)c2cc1OC
[5]
  EC50: 6.2 µM (active)
[6]
  EC50: 7.33 µM (active)
[7]
  IC50: > 20 µM (inactive)
[8]
  AC50: 26.3 µM (active)

## CCCCC(=O)Nc1ccc(C(=O)Nc2ccc(S(=O)(=O)N3CCCC3)cc2)cc1
[9]
  EC50: > 29.9 µM (inactive)
[10]
  IC50: > 29.9 µM (inactive)

## CCN(CC)c1ccc2cc(C(=O)NCc3ccc(F)cc3)c(=N)oc2c1
Beta-lactamase [11]
  IC50: > 59.6 µM (inactive)
Beta-lactamase [12]
  IC50: 28.1 µM (inactive)
cells
  IC50: 2.12 µM (active)

## O=C(Nc1ccccc1C(F)(F)F)C(O)(c1ccccc1)C1CCCCC1 (stereo unspecified)
Vero
  AC50: 36.8 µM (active)

## N#C/C(=C\c1ccc(OC(=O)c2ccc(Cl)s2)cc1)c1nc2ccccc2[nH]1
[13]
  EC50: 13.1 µM (active)
[14]
  EC50: 19.1 µM (active)
H4
  EC50: 71.4 µM (active)
[15]
  IC50: 1.77 µM (active)
[16]
  IC50: 1.29 µM (active)
[17]
  IC50: 16.9 µM (active)
[18]
  IC50: 2.49 µM (active)
[19]
  IC50: 22.9 µM (inactive)

## CC[C@@]1(c2ccc(C)cc2)C(=O)N(C(=O)OC(C)C)N1C(=O)OC(C)C
[20]
  IC50: 0.028 µM (active)
[21]
  IC50: 0.017 µM (active)

Reference: ChEMBL document CHEMBL1201862, “PubChem BioAssay data set” (2004)
